We go through ten compounds from patent US8058309B2, “Protein kinase modulators and therapeutic uses thereof” (Novotyr Therapeutics Ltd., priority 2006, dated 2011).

The target in assay [1] is T1, IGF1R (Homo sapiens, UniProt P08069).
T1 construct: made in house
Briefly: Inhibition of IGF1-induced signaling in intact MCF7 cells (western blot). It is filed as cell-based. The following applies: 4 h exposure, IGF1 stimulation. Here is the method:
(§1) Tyrosine autophosphorylation of the β-subunit of IGF1R as well as downstream signaling induced by IGF1R were assayed in breast cancer MCF7 cells. Tyrosine autophosphorylation of the EGFR and the EGFR signaling was assayed in prostate cancer PC3 cells. Tyrosine autophosphorylation of the PDGFR and its signaling was assayed in fibroblasts overexpres sing PDGFR. Tyro sine autophosphorylation of the IR and its signaling was assayed in fibroblasts overexpressing IR. Cells were seeded in 6-well plates (MCF7-250,000 cells/well, PC3-150,000 cells/well, fibroblasts-140,000 cells/well) and 24 hours later medium was replaced by serum-free medium (DMEM supplemented with 100 units/ml penicillin and 100 μg/ml streptomycin). Following 20 hours of serum-starvation medium was replaced with medium containing various concentrations of the inhibitors in 0.1% DMSO for additional 4 hours. Cells were then stimulated for 5 min with 50 ng/ml IGF-1 (MCF7 cells), 20 ng/ml EGF (PC3 cells), 50 ng/ml PDGF (fibroblasts overexpressing PDGFR) or 100 nM insulin (fibroblasts overexpressing IR), washed twice with PBS and lysed by boiling sample buffer (10% glycerol, 50 mM Tris-HCl, pH 6.8, 3% SDS, and 5%, β-mercaptoethanol). Equal amounts of protein per lane were separated by 8% SDS-PAGE and transferred to a nitrocellulose membrane (Sartorius AG). Phosphorylated proteins were immunoblotted with anti-phospho-IGF1R (phosphor-IGF1R), anti-phosphotyrosine-IRS1 (phospho-IRS1), anti-phospho(T308)Akt (phospho-PKB), anti-phospho-Erk (phospho-ERK), anti-phosphotyrosine 4G10&PY20 (pY-EGFR or pY-PDGFR), anti-phospho-Ser^636/639-IRS1 (pS^636/639-IRS1) and anti-phospho-STAT3 (phospho-STAT3) antibodies. Detection was performed with horseradish peroxidase-conjugated secondary antibody using the ECL system. Blots were then stripped of antibodies, blocked with TBST with 5% low fat milk and re-probed with antibodies detecting both the phosphorylated and the non-phosphorylated corresponding proteins e.g. IGF1Rβ, IRS1, PKB, ERK, IRβ, PDGFR and Stat3.

The subject of assay [2] is IRS1. Briefly: IRS1 Ser-phosphorylation and IRS1 levels in MCF7 cells. The conditions noted are these: breast cancer MCF7 cells. It is filed as cell-based. Here is the method:
as §1
(§2) In addition, lysates were prepared from cells exposed to inhibitors at various concentrations for 24 hours in the presence or the absence of FCS without stimulation. Lysate preparation and western blot were the same as described above. Apoptosis was detected by immunoblotting with rabbit anti-PARP antibodies.

Assay [3] relates to YUMAC. Briefly: Proliferation assay YUMAC. It is filed as cell-based. The conditions noted are these: Homo sapiens; Table 4; 72 hours incubation; read-out: Inhibition of human metastatic melanoma cells, YUMAC IC50. Here is the method: (§3) Various cancer cell lines (listed in table 1) were plated at a density of 1000-5000 cells/well in 96-well plates in 90111 growth medium containing 10% FCS, 100 units/ml penicillin and 100 μg/ml streptomycin. Inhibitors were added a day later in 10 μl of 1% DMSO in DDW to obtain final concentrations of 0, 0.1, 0.3, 1, 3, and 10 μM. The final concentration of DMSO (0.1% DMSO) was kept constant in all samples. Medium with inhibitors was refreshed a day and two days later. Following exposure of the cells to the inhibitors for 72 hours at 37° C., the cells were fixed in 0.5% gluteraldehyde in medium for 10 min, washed three times with DDW, once with 0.1M sodium borate buffer pH 8.5 and stained with 1% methylene blue dissolved in 0.1M borate buffer solution for 60 min. Excess dye was washed out and cell-bound dye was eluted with 200 μl/well of 0.1 M HCl. The optical density value was read at 620 nm in ELISA plate reader. The data was analyzed in Microsoft Excel, using the vehicle control as 100% proliferation. The assays were performed in triplicates. The values in table 1 represent IC50 values derived from the dose-dependent growth curves obtained.
(§4) Compounds 6, 7, 8, and 9 were tested for their inhibitory potential in cell proliferation assay. In this assay cells were exposed to increasing concentrations of the molecules (at 0.1% DMSO in all wells) a day after seeding. Medium and inhibitors were refreshed every day, and following three days of treatment, cells were fixed and stained with methylene-Blue. IC50 values were determined from the curves of the optical density against compound concentration. The assay was performed in triplicates.

The subject of assay [4] is metastatic melanoma YUMAC cells. Description: Apoptosis (cleaved PARP) in YUMAC cells. The conditions noted are these: 24 hours of exposure, 3 μM. It is filed as cell-based, human. Here is the method:
as §2

In assay [5] the test system is IRS1. Description: IRS1 Ser-phosphorylation in YUMAC cells. It is filed as cell-based, human. The following applies: metastatic melanoma YUMAC cells. Here is the method:
as §2

Assay [6] addresses T1, IGF1R. Description: IGF1R cellular free kinase assay (pGT substrate phosphorylation). The conditions noted are these: partially purified IGF1R; 20 μM ATP; read-out: IC50 values of IGF1R activity in cellular free kinase assay. It is filed as biochemical. Here is the method:
The general protein-tyrosine kinase substrate, poly(Glu,Tyr) 4:1 (pGT), was coated onto a 96-well Maxisorp plates (Nunc) by adding 125 μl of 0.1 mg/ml pGT in PBS to each well. Plates were sealed and incubated for 16 hours at 37° C., washed once with TBST (10 mM Tris-HCl, pH 7.5, 50 mM NaCl, and 0.1% Triton X-100) and once with DDW, dried for 2-3 hours, and stored at 4° C. […] The plate was then washed with TBS with 0.2% Tween 20 (TBST) and blocked with 0.5% BSA in TBST. Mouse monoclonal anti-phosphotyrosine antibody, conjugated to Horse radish peroxidase (PT-66, 1:50000) was added to the plate. Following incubation for 45 min at room temperature, the plate was washed repeatedly with TBST. Detection was carried out with a color reagent, 2,2′-azido-bis-3-ethylbenzithiazoline-6-sulfonic acid, in citrate-phosphate buffer, pH 4.0, with 0.004% H2O2 for 10 min and monitored at 405 nm, all at room temperature. IC50 values of inhibitors were calculated using the REGRESSION program. The assay was optimized with respect to the amount of IGF-1R (partially purified from cells overexpressing IGF1R), reaction time, and ATP concentration. The signal was linear for 30 min in the range of IGF1R protein concentrations up to 35 ng/well.

Assay [7] deals with YURIF. Description: Proliferation assay YURIF. It is filed as cell-based. The conditions noted are these: Homo sapiens; Table 4; 72 hours incubation; read-out: Inhibition of human metastatic melanoma cells, YURIF IC50. Here is the method:
as §3, §4

The structures appear in SMILES notation. Entries after “also recorded” stand apart in the source; their conditions may differ.

The IC50 is the midpoint of a concentration-inhibition curve.

T1 sequence (P08069 31-1367, species assumed): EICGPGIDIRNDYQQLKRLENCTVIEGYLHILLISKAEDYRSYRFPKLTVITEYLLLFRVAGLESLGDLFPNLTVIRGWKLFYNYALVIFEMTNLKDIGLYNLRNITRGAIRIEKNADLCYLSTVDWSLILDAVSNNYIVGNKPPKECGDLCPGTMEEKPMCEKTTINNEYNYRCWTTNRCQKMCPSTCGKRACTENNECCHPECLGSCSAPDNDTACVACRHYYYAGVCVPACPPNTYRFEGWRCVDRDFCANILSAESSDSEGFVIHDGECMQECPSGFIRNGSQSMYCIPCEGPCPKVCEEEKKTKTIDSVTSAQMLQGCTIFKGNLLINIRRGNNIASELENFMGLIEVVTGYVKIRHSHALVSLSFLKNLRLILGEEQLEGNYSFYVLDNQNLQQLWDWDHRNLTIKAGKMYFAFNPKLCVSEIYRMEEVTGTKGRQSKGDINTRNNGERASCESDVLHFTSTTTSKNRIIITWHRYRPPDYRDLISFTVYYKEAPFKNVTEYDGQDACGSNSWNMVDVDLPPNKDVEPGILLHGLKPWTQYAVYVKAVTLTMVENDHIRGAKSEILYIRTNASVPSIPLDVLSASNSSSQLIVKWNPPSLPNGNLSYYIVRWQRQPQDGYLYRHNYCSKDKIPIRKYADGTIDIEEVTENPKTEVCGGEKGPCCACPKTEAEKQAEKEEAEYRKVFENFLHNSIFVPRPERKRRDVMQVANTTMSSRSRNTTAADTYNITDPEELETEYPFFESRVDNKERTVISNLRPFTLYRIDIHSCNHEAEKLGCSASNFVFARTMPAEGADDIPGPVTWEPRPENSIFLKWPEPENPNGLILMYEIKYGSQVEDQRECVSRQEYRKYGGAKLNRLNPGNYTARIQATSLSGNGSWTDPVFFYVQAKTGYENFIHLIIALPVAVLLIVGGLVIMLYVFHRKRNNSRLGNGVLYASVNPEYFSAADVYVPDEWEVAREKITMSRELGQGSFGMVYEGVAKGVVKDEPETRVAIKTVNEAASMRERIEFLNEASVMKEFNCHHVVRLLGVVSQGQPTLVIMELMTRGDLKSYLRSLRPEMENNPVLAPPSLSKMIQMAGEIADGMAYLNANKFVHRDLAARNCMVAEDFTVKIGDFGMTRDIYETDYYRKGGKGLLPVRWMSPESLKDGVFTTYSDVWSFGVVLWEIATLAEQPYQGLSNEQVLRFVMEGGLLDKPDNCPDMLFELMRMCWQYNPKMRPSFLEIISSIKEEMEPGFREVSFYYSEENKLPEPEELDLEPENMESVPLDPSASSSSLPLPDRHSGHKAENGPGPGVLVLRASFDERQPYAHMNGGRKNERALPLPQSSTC

`N#C/C(=C\c1ccc2oc(=S)[nH]c2c1)C(=O)c1ccc(O)c(O)c1` [Compound 20, reference compound]: the “Inhibition of IGF1R autophosphorylation and IGF1-induced signaling (IRS1 pTyr, Akt/PKB, MAPK/ERK)” value in assay [1] was “had no effect on the signaling”.

With `N#C/C(=C\c1cc(O)c(O)c(C(F)(F)F)c1)C(=S)NCc1cc(O)c(O)c(O)c1` [Compound 13], the “IRS1 Ser-phosphorylation” value in assay [2] is “trigger IRS1-ser phosphorylation”; in assay [5], “trigger IRS1-ser phosphorylation; also recorded: detected”. The IC50 in assay [3] came out at 1000 nM; in assay [6] it was 68 nM; in assay [7], 870 nM. Further, the “Cleavage of PARP (apoptosis)” value in assay [4] is recorded as “detected”.

On to `Oc1cc(/C=C/C(=S)NCc2cc(O)c(O)c(Br)c2)cc(Br)c1O` [Compound 18], for which, in assay [6], the IC50 stood at 196 nM.

Regarding `N#C/C(=C\c1cc(O)c(O)c(Br)c1)C(=S)NCc1ccc(O)c(O)c1` [Compound 15], the IC50 in assay [6] is 115 nM.

For the compound `N#C/C(=C\c1cccc(Br)c1)C(=S)NCc1cc(O)c(O)c(O)c1` [Compound 19], the IC50 is roughly 10000 nM in assay [3], 700 nM in assay [6] and greater than 10000 nM in assay [7].

Turning to `N#C/C(=C\c1cc(O)c(O)c(Cl)c1)C(=S)NCc1cc(O)c(O)c(O)c1` [Compound 11], the “IRS1 Ser-phosphorylation” value in assay [2] and in assay [5] was “trigger IRS1-ser phosphorylation” throughout. Further, the IC50 in assay [3] is 1200 nM; in assay [6], 30 to 200 nM; in assay [7], 1200 nM.

Turning to `N#C/C(=C\c1cc(O)c(O)c(O)c1)C(=S)NCc1cc(O)c(O)c(Br)c1` [Compound 17], the figures for the IC50 in assay [3], in assay [6] and in assay [7] were greater than 10000 nM, 49 nM and greater than 10000 nM, respectively.

In the case of `N#C/C(=C\c1cc(O)c(O)c(I)c1)C(=S)NCc1ccc(O)c(O)c1` [Compound 16], the IC50 in assay [6] amounted to 193 nM.

As to `N#C/C(=C\c1cc(O)c(O)c(F)c1)C(=S)NCc1cc(O)c(O)c(O)c1` [Compound 12], the IC50 in assay [6] came to 169 nM.

Regarding `Oc1cc(CNC(=S)/C=C/c2cc(O)c(O)c(I)c2)cc(O)c1O` [Compound 10], the “IRS1 Ser-phosphorylation” value was “trigger IRS1-ser phosphorylation” in assay [2] and “trigger IRS1-ser phosphorylation; also recorded: detected” in assay [5]. The IC50 in assay [3] turned out to be 300 nM; in assay [6], 33 nM; in assay [7], 470 nM. Besides, the “Cleavage of PARP (apoptosis)” value in assay [4] is “detected”.
